Laboratory results as given in PubChem BioAssay (NCI).
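Cells were grown in 96-well plates and exposed to each compound for 48 hours at five concentrations; endpoints were interpolated linearly between bracketing concentrations, or set to the highest concentration if not reached. GI50 marks 50% less growth. TGI denotes the concentration required for complete inhibition of growth.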

Legend:
Test in all cases: NCI-60 cell line screen, 48 h
SK-MEL-5 melanoma = tested on: SK-MEL-5 melanoma
LOX IMVI melanoma = tested on: LOX IMVI melanoma
NCI-H522 lung = tested on: NCI-H522 lung
MCF7 breast = tested on: MCF7 breast
HL-60(TB) leukemia = tested on: HL-60(TB) leukemia
NCI/ADR-RES ovarian = tested on: NCI/ADR-RES ovarian
SF-268 CNS = tested on: SF-268 CNS
RPMI-8226 leukemia = tested on: RPMI-8226 leukemia
KM12 colon = tested on: KM12 colon
786-0 renal = tested on: 786-0 renal
HOP-62 NSCLC = tested on: HOP-62 NSCLC
ACHN renal = tested on: ACHN renal
K-562 leukemia = tested on: K-562 leukemia
NCI-H226 lung = tested on: NCI-H226 lung
T-47D breast = tested on: T-47D breast
A498 renal = tested on: A498 renal
HT29 colon = tested on: HT29 colon
DU-145 prostate = tested on: DU-145 prostate
SW-620 colon = tested on: SW-620 colon
MDA-MB-435 = tested on: MDA-MB-435
NCI-H23 lung = tested on: NCI-H23 lung
M14 melanoma = tested on: M14 melanoma
HS 578T breast = tested on: HS 578T breast
TK-10 renal = tested on: TK-10 renal
COLO 205 colon = tested on: COLO 205 colon
SK-OV-3 ovarian = tested on: SK-OV-3 ovarian
SK-MEL-2 melanoma = tested on: SK-MEL-2 melanoma
OVCAR-8 ovarian = tested on: OVCAR-8 ovarian
SK-MEL-28 melanoma = tested on: SK-MEL-28 melanoma
SN12C renal = tested on: SN12C renal
NCI-H460 lung = tested on: NCI-H460 lung
BT-549 breast = tested on: BT-549 breast
A549 NSCLC = tested on: A549 NSCLC
SNB-75 CNS = tested on: SNB-75 CNS
IGROV1 ovarian = tested on: IGROV1 ovarian
SNB-19 CNS = tested on: SNB-19 CNS
U251 CNS = tested on: U251 CNS
PC-3 prostate = tested on: PC-3 prostate
HCC-2998 colon = tested on: HCC-2998 colon
SF-539 CNS = tested on: SF-539 CNS
HCT-116 colon = tested on: HCT-116 colon
OVCAR-4 ovarian = tested on: OVCAR-4 ovarian
UACC-257 melanoma = tested on: UACC-257 melanoma
MOLT-4 leukemia = tested on: MOLT-4 leukemia
CAKI-1 renal = tested on: CAKI-1 renal
MALME-3M melanoma = tested on: MALME-3M melanoma
MDA-MB-468 breast = tested on: MDA-MB-468 breast
OVCAR-5 ovarian = tested on: OVCAR-5 ovarian
CCRF-CEM leukemia = tested on: CCRF-CEM leukemia
HOP-92 NSCLC = tested on: HOP-92 NSCLC
UACC-62 melanoma = tested on: UACC-62 melanoma
HCT-15 colon = tested on: HCT-15 colon
RXF 393 renal = tested on: RXF 393 renal
SF-295 CNS = tested on: SF-295 CNS
EKVX NSCLC = tested on: EKVX NSCLC
OVCAR-3 ovarian = tested on: OVCAR-3 ovarian

`Cc1cc(C)cc(Oc2cccc(-c3c(C)nnn3C3CCN(CCN(C)C)CC3)n2)c1` showed a GI50 (SK-MEL-5 melanoma) of 1.4 µM, a TGI (SK-MEL-5 melanoma) of 4.95 µM and a GI50 (LOX IMVI melanoma) of 1.28 µM. The TGI (LOX IMVI melanoma) was 7.21 µM, the GI50 (NCI-H522 lung) was 1.23 µM and the TGI (NCI-H522 lung) was 4.41 µM. It also gave a GI50 (MCF7 breast) of 0.715 µM, a TGI (MCF7 breast) of 12.3 µM and a GI50 (HL-60(TB) leukemia) of 0.134 µM. It also gave a TGI (HL-60(TB) leukemia) of 1.18 µM, a GI50 (NCI/ADR-RES ovarian) of 2.63 µM and a TGI (NCI/ADR-RES ovarian) of 14.3 µM. It also gave a GI50 (SF-268 CNS) of 4.56 µM, a TGI (SF-268 CNS) of 20.1 µM and a GI50 (RPMI-8226 leukemia) of 0.378 µM. It also gave a TGI (RPMI-8226 leukemia) of 2.78 µM, a GI50 (KM12 colon) of 2.72 µM and a TGI (KM12 colon) of 16.6 µM. For the same molecule, the GI50 (786-0 renal) was 0.939 µM, the TGI (786-0 renal) was 3.89 µM and the GI50 (HOP-62 NSCLC) was 1.13 µM. The TGI (HOP-62 NSCLC) was 12.9 µM, the GI50 (ACHN renal) was 2.01 µM and the TGI (ACHN renal) was 15.7 µM. For the same molecule, the GI50 (K-562 leukemia) was 0.671 µM, the TGI (K-562 leukemia) was 6.82 µM and the GI50 (NCI-H226 lung) was 2.44 µM. It also gave a TGI (NCI-H226 lung) of 17.2 µM, a GI50 (T-47D breast) of 2 µM and a TGI (T-47D breast) of 24.3 µM. It also gave a GI50 (A498 renal) of 1.45 µM, a TGI (A498 renal) of 7.52 µM and a GI50 (HT29 colon) of 0.742 µM. For the same molecule, the TGI (HT29 colon) was 5.54 µM, the GI50 (DU-145 prostate) was 12.3 µM and the TGI (DU-145 prostate) was 34 µM. It also gave a GI50 (SW-620 colon) of 2.73 µM, a TGI (SW-620 colon) of 16.2 µM and a GI50 (MDA-MB-435) of 1.6 µM. It also gave a TGI (MDA-MB-435) of 14.3 µM, a GI50 (NCI-H23 lung) of 3.43 µM and a TGI (NCI-H23 lung) of 16.1 µM. For the same molecule, the GI50 (M14 melanoma) was 1.08 µM, the TGI (M14 melanoma) was 11.5 µM and the GI50 (HS 578T breast) was 1.77 µM. For the same molecule, the TGI (HS 578T breast) was 9.43 µM, the GI50 (TK-10 renal) was 0.707 µM and the TGI (TK-10 renal) was 13.1 µM. It also gave a GI50 (COLO 205 colon) of 0.632 µM, a TGI (COLO 205 colon) of 10.8 µM and a GI50 (SK-OV-3 ovarian) of 0.893 µM. The TGI (SK-OV-3 ovarian) was 3.52 µM, the GI50 (SK-MEL-2 melanoma) was 2.4 µM and the TGI (SK-MEL-2 melanoma) was 12.5 µM. It also gave a GI50 (OVCAR-8 ovarian) of 1.88 µM, a TGI (OVCAR-8 ovarian) of 13.7 µM and a GI50 (SK-MEL-28 melanoma) of 3.9 µM. It also gave a TGI (SK-MEL-28 melanoma) of 18.7 µM, a GI50 (SN12C renal) of 4.27 µM and a TGI (SN12C renal) of 18.6 µM. For the same molecule, the GI50 (NCI-H460 lung) was 2.45 µM, the TGI (NCI-H460 lung) was 13.1 µM and the GI50 (BT-549 breast) was 1.67 µM. It also gave a TGI (BT-549 breast) of 3.65 µM, a GI50 (A549 NSCLC) of 1.46 µM and a TGI (A549 NSCLC) of 12.9 µM. For the same molecule, the GI50 (SNB-75 CNS) was 0.59 µM, the TGI (SNB-75 CNS) was 8.53 µM and the GI50 (IGROV1 ovarian) was 5.15 µM. The TGI (IGROV1 ovarian) was 18.7 µM, the GI50 (SNB-19 CNS) was 5.51 µM and the TGI (SNB-19 CNS) was 20.8 µM. For the same molecule, the GI50 (U251 CNS) was 3.16 µM, the TGI (U251 CNS) was 15.3 µM and the GI50 (PC-3 prostate) was 2.07 µM. For the same molecule, the TGI (PC-3 prostate) was 17.2 µM, the GI50 (HCC-2998 colon) was 4.15 µM and the TGI (HCC-2998 colon) was 17.8 µM. The GI50 (SF-539 CNS) was 1.71 µM, the TGI (SF-539 CNS) was 8.22 µM and the GI50 (HCT-116 colon) was 1.41 µM. For the same molecule, the TGI (HCT-116 colon) was 10.1 µM, the GI50 (OVCAR-4 ovarian) was 3.1 µM and the TGI (OVCAR-4 ovarian) was 21 µM. It also gave a GI50 (UACC-257 melanoma) of 1.48 µM, a TGI (UACC-257 melanoma) of 15.8 µM and a GI50 (MOLT-4 leukemia) of 1.85 µM. For the same molecule, the TGI (MOLT-4 leukemia) was 6.74 µM, the GI50 (CAKI-1 renal) was 0.745 µM and the TGI (CAKI-1 renal) was 15.6 µM. It also gave a GI50 (MALME-3M melanoma) of 2.08 µM, a TGI (MALME-3M melanoma) of 13.7 µM and a GI50 (MDA-MB-468 breast) of 1.07 µM. It also gave a TGI (MDA-MB-468 breast) of 3.73 µM, a GI50 (OVCAR-5 ovarian) of 3.61 µM and a TGI (OVCAR-5 ovarian) of 22.1 µM. For the same molecule, the GI50 (CCRF-CEM leukemia) was 0.951 µM, the TGI (CCRF-CEM leukemia) was 5.13 µM and the GI50 (HOP-92 NSCLC) was 0.455 µM. For the same molecule, the TGI (HOP-92 NSCLC) was 15.4 µM, the GI50 (UACC-62 melanoma) was 0.554 µM and the TGI (UACC-62 melanoma) was 5.24 µM. It also gave a GI50 (HCT-15 colon) of 1.41 µM, a TGI (HCT-15 colon) of 11.2 µM and a GI50 (RXF 393 renal) of 3.52 µM. For the same molecule, the TGI (RXF 393 renal) was 12.6 µM, the GI50 (SF-295 CNS) was 4.72 µM and the TGI (SF-295 CNS) was 19.4 µM. It also gave a GI50 (EKVX NSCLC) of 4.8 µM, a TGI (EKVX NSCLC) of 21.1 µM and a GI50 (OVCAR-3 ovarian) of 1.66 µM. For the same molecule, the TGI (OVCAR-3 ovarian) was 6.66 µM.
